From US9169254B2, “Spiroimidazolone derivative” (Chugai Seiyaku Kabushiki Kaisha, priority 2009, dated 2015)

What follows are compounds tested against T1, human PTH1 receptor (Homo sapiens, UniProt Q03431) (assay: In vitro cAMP signal activity in HKRK-B7 cells (LLC-PK1 cells overexpressing the human PTH1 receptor)). Conditions: HKRK-B7 cells; compound at 1×10^−3 M; cAMP produced as percentage of that produced by hPTH(1-34) at 100 nM.
T1 sequence (Q03431 27-593): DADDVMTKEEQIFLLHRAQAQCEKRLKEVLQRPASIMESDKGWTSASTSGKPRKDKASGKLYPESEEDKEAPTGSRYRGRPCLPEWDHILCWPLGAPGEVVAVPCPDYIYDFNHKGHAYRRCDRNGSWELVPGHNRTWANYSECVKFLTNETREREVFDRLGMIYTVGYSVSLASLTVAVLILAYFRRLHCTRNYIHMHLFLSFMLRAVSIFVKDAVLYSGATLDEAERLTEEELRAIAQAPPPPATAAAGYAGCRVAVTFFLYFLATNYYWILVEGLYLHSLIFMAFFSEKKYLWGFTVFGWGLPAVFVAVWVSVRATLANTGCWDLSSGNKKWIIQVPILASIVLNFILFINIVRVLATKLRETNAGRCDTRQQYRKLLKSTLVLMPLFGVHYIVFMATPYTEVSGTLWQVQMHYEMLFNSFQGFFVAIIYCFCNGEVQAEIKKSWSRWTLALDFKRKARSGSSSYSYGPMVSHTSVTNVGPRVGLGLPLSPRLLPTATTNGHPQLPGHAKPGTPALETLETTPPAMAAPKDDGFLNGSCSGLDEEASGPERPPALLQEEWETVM
Format: cell-based

cAMP production activity (%) | Structure (SMILES)
92% | CON(C)C(=O)c1cc(C)c(/C=C/S(=O)(=O)N2CCC3(CC2)N=C(C2CCC(C)CC2)NC3=O)c(C)c1 (stereo not drawn) [Compound 998, N-Methoxy-3,5,N-trimethyl-4-{(E)-2-[2-(4-methyl-cyclohexyl)-4-oxo-1,3,8-triaza-spiro[4.5]dec-1-ene-8-sulfonyl]-vinyl}-benzamide]
61% | Cc1cc(C(=O)N2CCC(C)(O)CC2)cc(C)c1/C=C/S(=O)(=O)N1CCC2(CC1)N=C(C1CCC(C)CC1)NC2=O (stereo not drawn) [Compound 999, 8-{(E)-2-[4-(4-hydroxy-4-methyl-piperidine-1-carbonyl)-2,6-dimethyl-phenyl]-ethenesulfonyl}-2-(4-methyl-cyclohexyl)-1,3,8-triaza-spiro[4.5]dec-1-en-4-one]
86% | Cc1cc(C(=O)N2CCC(O)(CF)CC2)cc(C)c1/C=C/S(=O)(=O)N1CCC2(CC1)N=C(C1CCC(C)CC1)NC2=O (stereo not drawn) [Compound 1000, 8-{(E)-2-[4-(4-fluoromethyl-4-hydroxy-piperidine-1-carbonyl)-2,6-dimethyl-phenyl]-ethenesulfonyl}-2-(4-methyl-cyclohexyl)-1,3,8-triaza-spiro[4.5]dec-1-en-4-one]
64% | Cc1cc(C(=O)N2CCCO2)cc(C)c1/C=C/S(=O)(=O)N1CCC2(CC1)N=C(C1CCC(C)CC1)NC2=O (stereo not drawn) [Compound 1001, 8-{(E)-2-[4-(isoxazolidine-2-carbonyl)-2,6-dimethyl-phenyl]-ethenesulfonyl}-2-(4-methyl-cyclohexyl)-1,3,8-triaza-spiro[4.5]dec-1-en-4-one]
50% | Cc1cc(C(=O)N2CCS(=O)(=O)CC2)cc(C)c1/C=C/S(=O)(=O)N1CCC2(CC1)N=C(C1CCC(C)CC1)NC2=O (stereo not drawn) [Compound 1002, 8-{(E)-2-[4-(1,1-dioxo-1λ^6-thiomorpholine-4-carbonyl)-2,6-dimethyl-phenyl]-ethenesulfonyl}-2-(4-methyl-cyclohexyl)-1,3,8-triaza-spiro[4.5]dec-1-en-4-one]
67% | Cc1cc(C(=O)N(C)C)cc(C)c1/C=C/S(=O)(=O)N1CCC2(CC1)N=C(C1CCC(C)CC1)NC2=O (stereo not drawn) [Compound 1003, 3,5,N,N-tetramethyl-4-{(E)-2-[2-(4-methyl-cyclohexyl)-4-oxo-1,3,8-triaza-spiro[4.5]dec-1-ene-8-sulfonyl]-vinyl}-benzamide]
52% | Cc1cc(C(=O)N2CCC(O)(C(F)(F)F)CC2)cc(C)c1/C=C/S(=O)(=O)N1CCC2(CC1)N=C(C1CCCCC1)NC2=O [Compound 1006, 2-Cyclohexyl-8-{(E)-2-[4-(4-hydroxy-4-trifluoromethyl-piperidine-1-carbonyl)-2,6-dimethyl-phenyl]-ethenesulfonyl}-1,3,8-triaza-spiro[4.5]dec-1-en-4-one]
20% | Cc1cc(C(=O)N2CCOC2=O)cc(C)c1/C=C/S(=O)(=O)N1CCC2(CC1)N=C(C1CCCCC1)NC2=O [Compound 1007, 2-Cyclohexyl-8-{(E)-2-[2,6-dimethyl-4-(2-oxo-oxazolidine-3-carbonyl)-phenyl]-ethenesulfonyl}-1,3,8-triaza-spiro[4.5]dec-1-en-4-one]
73% | CCCCC1CCC(C2=NC3(CCN(S(=O)(=O)/C=C/c4c(C)cc(C(=O)N5CCC(OCCO)CC5)cc4C)CC3)C(=O)N2)CC1 (stereo not drawn) [Compound 1008, 2-(4-Butyl-cyclohexyl)-8-((E)-2-{4-[4-(2-hydroxy-ethoxy)-piperidine-1-carbonyl]-2,6-dimethyl-phenyl}-ethenesulfonyl)-1,3,8-triaza-spiro[4.5]dec-1-en-4-one]
70% | CCCCC1CCC(C2=NC3(CCN(S(=O)(=O)/C=C/c4c(C)cc(C(=O)N5CCC(OCCOCCO)CC5)cc4C)CC3)C(=O)N2)CC1 (stereo not drawn) [Compound 1009, 2-(4-butyl-cyclohexyl)-8-[(E)-2-(4-{4-[2-(2-hydroxy-ethoxy)-ethoxy]-piperidine-1-carbonyl}-2,6-dimethyl-phenyl)-ethenesulfonyl]-1,3,8-triaza-spiro[4.5]dec-1-en-4-one]
96% | Cc1cc(C(=O)N2CCC(OC[C@H](O)CO)CC2)cc(C)c1/C=C/S(=O)(=O)N1CCC2(CC1)N=C(CCCCCCCCC(F)(F)F)NC2=O [Compound 1010, 8-((E)-2-{4-[4-((R)-2,3-Dihydroxy-propoxy)-piperidine-1-carbonyl]-2,6-dimethyl-phenyl}-ethenesulfonyl)-2-(9,9,9-trifluoro-nonyl)-1,3,8-triaza-spiro[4.5]dec-1-en-4-one]
17% | Cc1cc(N(C)C(=O)CN)cc(C)c1/C=C/S(=O)(=O)N1CCC2(CC1)N=C(c1cccc(OC(F)(F)F)c1)NC2=O [Compound 1011, 2-Amino-N-(3,5-dimethyl-4-{(E)-2-[4-oxo-2-(3-trifluoromethoxy-phenyl)-1,3,8-triaza-spiro[4.5]dec-1-ene-8-sulfonyl]-vinyl}-phenyl)-N-methyl-acetamide]
87% | Cc1cc(N(C)C(=O)OCCO)cc(C)c1/C=C/S(=O)(=O)N1CCC2(CC1)N=C(c1cccc(OC(F)(F)F)c1)NC2=O [Compound 1012, (3,5-Dimethyl-4-{(E)-2-[4-oxo-2-(3-trifluoromethoxy-phenyl)-1,3,8-triaza-spiro[4.5]dec-1-ene-8-sulfonyl]-vinyl}-phenyl)-methyl-carbamic acid 2-hydroxy-ethyl ester]
48% | Cc1cc(N(C)C(=O)N(C)C)cc(C)c1/C=C/S(=O)(=O)N1CCC2(CC1)N=C(c1cccc(OC(F)(F)F)c1)NC2=O [Compound 1013, 1-(3,5-Dimethyl-4-{(E)-2-[4-oxo-2-(3-trifluoromethoxy-phenyl)-1,3,8-triaza-spiro[4.5]dec-1-ene-8-sulfonyl]-vinyl}-phenyl)-1,3,3-trimethyl-urea]
84% | CNC(=O)N(C)c1cc(C)c(/C=C/S(=O)(=O)N2CCC3(CC2)N=C(c2cccc(OC(F)(F)F)c2)NC3=O)c(C)c1 [Compound 1014, 1-(3,5-dimethyl-4-{(E)-2-[4-oxo-2-(3-trifluoromethoxy-phenyl)-1,3,8-triaza-spiro[4.5]dec-1-ene-8-sulfonyl]-vinyl}-phenyl)-1,3-dimethyl-urea]
83% | Cc1cc(N(C)C(N)=O)cc(C)c1/C=C/S(=O)(=O)N1CCC2(CC1)N=C(c1cccc(OC(F)(F)F)c1)NC2=O [Compound 1015, 1-(3,5-dimethyl-4-{(E)-2-[4-oxo-2-(3-trifluoromethoxy-phenyl)-1,3,8-triaza-spiro[4.5]dec-1-ene-8-sulfonyl]-vinyl}-phenyl)-1-methyl-urea]
92% | CNc1cc(C)c(/C=C/S(=O)(=O)N2CCC3(CC2)N=C(c2cccc(SC(F)(F)F)c2)NC3=O)c(C)c1 [Compound 1016, 8-[(E)-2-(2,6-Dimethyl-4-methylamino-phenyl)-ethenesulfonyl]-2-(3-trifluoromethylsulfanyl-phenyl)-1,3,8-triaza-spiro[4.5]dec-1-en-4-one]
101% | Cc1cc(N(C)C(N)=O)cc(C)c1/C=C/S(=O)(=O)N1CCC2(CC1)N=C(c1ccc(F)c(C(F)(F)F)c1)NC2=O [Compound 1017, 1-(4-{(E)-2-[2-(4-Fluoro-3-trifluoromethyl-phenyl)-4-oxo-1,3,8-triaza-spiro[4.5]dec-1-ene-8-sulfonyl]-vinyl}-3,5-dimethyl-phenyl)-1-methyl-urea]
